PubChem BioAssay AID2060328 (Molecular Pharmacology Branch, DTP, NCI, 2025)
Values joined by “and” are separate entries in the source; they are usually repeats but may differ in a detail not shown here. Equal values may be shown once.

Tested on: MDA-MB-231 multicell spheroids, viability (%T/C)
Test: Anticancer human tumor MDA-MB-231 cell line growth inhibition [IpAb];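 also: viability read after seven days of drug exposure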;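 as to viability, T/C: 100% = DMSO vehicle control viability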
Details: for viability, T/C: stronger effect = lower value; for IC50: curve of compound
Excerpt: Combinatorial screen of targeted agents with ipatasertib and abemaciclib in multi-cell type tumor spheroids
A high-throughput screen of multi-cell type tumor spheroids was designed to identify active combinations of targeted small molecules and ipatasertib or abemaciclib. Complex spheroids include a stromal component modeled by human endothelial cells (HUVEC) and fibroblasts modeled by human mesenchymal stem cells (MSCs). The concentration ranges selected for each drug and investigational agent were based upon clinically achievable concentrations if the clinical Cmax of the agent was known.
Compounds. The drugs and investigational agents: ipatasertib (NSC767898), abemaciclib(NSC768073), selumetinib (NSC741078), trametinib (758246), adavosertib (NSC754352), everolimus (NSC733504), sapanisertib (NSC764658), vemurafenib (NSC761431), venetoclax (NSC766270), copanlisib (NSC809693), apelisib (NSC765974), palbociblib (NSC758247), vemurafenib (NSC761431), dabrafenib (NSC764134), ravoxertinib (NSC781343), BMS-387032 (NSC767048), sotorasib (NSC818433), talazoparib (NSC767125) and afursertib (NSC778305), were obtained from the National Cancer Institute (NCI) Developmental Therapeutics Program Chemical Repository. The FDA-approved anticancer drug set is available from the NCI Developmental Therapeutics Program. […] The stock solutions were prepared in dimethyl sulfoxide (DMSO, Sigma-Aldrich, St. Louis, MO, cat. D2650) at 800-fold the tested concentration and stored at -70 degrees C prior to their use. All drugs and investigational agents were tested over a range starting from a high concentration at or near the clinical Cmax and decreasing in half-log increments. If the clinical Cmax for an agent had not been determined, the highest concentration tested was 10 microM.
NCI60 Cell Culture. NCI60 cell lines were obtained from the NCI Developmental Therapeutics Program Tumor Repository. For each lot of cells, the Repository performed Applied Biosystems AmpFLSTR Identifiler testing with PCR amplification to confirm consistency with the published Identifier STR profile for each cell line. Cells were kept in continuous culture for no more than 20 passages. The optimal seeding densities for each of the cell lines at each time point assessed were determined prior to performing the concentration response studies. Briefly, the NCI60 human tumor lines were grown as monolayers in RPMI 1640 medium supplemented with 10% FBS and 2 mmol/L L-glutamine.
An additional 9 lines were from the NCI60 cell line panel including MDA-MB-231 breast carcinoma, MDA-MB-468 breast carcinoma, MCF7 breast carcinoma, Hs578T breast carcinoma, MALME-3M melanoma, SK-MEL-2 melanoma, SK-OV-3 ovarian carcinoma, DU-145 prostate carcinoma, PC-3 prostate carcinoma, all cell lines along with major genetic alterations are listed on Table 2. Pooled donor human umbilical vein endothelial cells (HUVEC, Lonza, cat. CC-2519) and human mesenchymal stem cells (hMSC, Lonza, cat. PT-2501) were purchased from Lonza (Walkersville, MD).
PDMR cell lines were grown in complete medium (DC medium): Dulbecco's modified Eagle's medium (DMEM)/F12 supplemented with 5% fetal bovine serum (FBS), 2 mM L-glutamine, 100 U/mL penicillin and 100 µg/ml streptomycin, 0.4 µg/ml hydrocortisone, 10 ng/ml epidermal growth factor (EGF) recombinant human protein, 24 µg/mL adenine, and 0.1 mg/mL primocin. During culture from frozen stock vials, PDMR cells were cultured in the same medium containing 10 µM Y-27632 (see Table 3). The PDCs were cultured in complete DMEM/F12 media without 10 microM Y-27632 dihydrochloride for at least two passages prior to the screen. The pooled donor HUVEC and hMSC were cultured in endothelial cell growth medium 2 (PromoCell, Heidelberg, Germany, cat. C-22011) and mesenchymal stem cell growth medium 2 (PromoCell, cat. C-28009), respectively. For all experiments, HUVEC and hMSC were used at passages </=5.
[…]

| IC50 | Structure (SMILES) | viability, T/C (compound 0.0316 µM) | viability, T/C (compound 0.1 µM) | viability, T/C (compound 0.316 µM) | viability, T/C (compound 1 µM) | viability, T/C (compound 3.16 µM) | viability, T/C (compound 10 µM) | viability, T/C (compound 0.00949 µM) | viability, T/C (compound 0.03 µM) | viability, T/C (compound 0.0949 µM) | viability, T/C (compound 0.3 µM) | viability, T/C (compound 0.949 µM) | viability, T/C (compound 3 µM) | viability, T/C (compound 0.000316 µM) | viability, T/C (compound 0.001 µM) | viability, T/C (compound 0.00316 µM) | viability, T/C (compound 0.01 µM) |
| --- | --- | --- | --- | --- | --- | --- | --- | --- | --- | --- | --- | --- | --- | --- | --- | --- | --- |
| > 10000 nM | Cc1nc(NC(=O)N2CCCC2C(N)=O)sc1-c1ccnc(C(C)(C)C(F)(F)F)c1 (stereo not given) | 92.2% and 88.6% | 74.9% and 72.1% | 68.2% and 66% | 65.7% and 73.6% | 66.8% and 71.2% | 62.7% and 60.5% | – | – | – | – | – | – | – | – | – | – |
| 186 nM and 72.9 nM | Cn1cnc2c(F)c(Nc3ccc(Br)cc3Cl)c(C(=O)NOCCO)cc21 | – | – | – | – | – | – | 75.6% and 63.3% | 59.9% and 54.4% | 54.8% and 50.4% | 52.9% and 41.3% | 27.7% and 30.4% | 14.4% and 19.2% | – | – | – | – |
| 1520 nM and 1330 nM | Cn1ncc(Cl)c1-c1cc(C(=O)NC(CN)Cc2cccc(F)c2)sc1Cl (stereo not given) | 100% and 101% | 89.6% and 87.9% | 75.6% | 57.4% and 57.5% | 37.4% and 30% | 0.23% and 0.17% | – | – | – | – | – | – | – | – | – | – |
| 406 nM and 209 nM | Cn1nccc1Nc1nccc(-c2ccn(C(CO)c3ccc(Cl)c(F)c3)c(=O)c2)n1 (stereo not given) | 71% and 65.7% | 59% and 53.1% | 49.6% and 47.1% | 48% and 38% | 30.3% and 33.5% | 23.5% and 21.3% | – | – | – | – | – | – | – | – | – | – |
| > 100 nM | Cn1ncnc1[C@H]1c2n[nH]c(=O)c3cc(F)cc(c23)N[C@@H]1c1ccc(F)cc1 | 77.7% and 75.4% | 67.3% and 69.8% | – | – | – | – | – | – | – | – | – | – | 99.2% and 96.9% | 92.1% and 94% | 81.4% and 85.3% | 79.3% and 79.6% |
